Measurements reported in US11696914B1 (priority 2019, dated 2023).

Biological target: Zaire ebolavirus disulfide-linked glycoprotein heterodimer (GP1-GP2) (Zaire ebolavirus, UniProt Q05320)
Experiment: biochemical
Type: binding

Sequence of Zaire ebolavirus disulfide-linked glycoprotein heterodimer (GP1-GP2) (Q05320 33-501 limits assumed): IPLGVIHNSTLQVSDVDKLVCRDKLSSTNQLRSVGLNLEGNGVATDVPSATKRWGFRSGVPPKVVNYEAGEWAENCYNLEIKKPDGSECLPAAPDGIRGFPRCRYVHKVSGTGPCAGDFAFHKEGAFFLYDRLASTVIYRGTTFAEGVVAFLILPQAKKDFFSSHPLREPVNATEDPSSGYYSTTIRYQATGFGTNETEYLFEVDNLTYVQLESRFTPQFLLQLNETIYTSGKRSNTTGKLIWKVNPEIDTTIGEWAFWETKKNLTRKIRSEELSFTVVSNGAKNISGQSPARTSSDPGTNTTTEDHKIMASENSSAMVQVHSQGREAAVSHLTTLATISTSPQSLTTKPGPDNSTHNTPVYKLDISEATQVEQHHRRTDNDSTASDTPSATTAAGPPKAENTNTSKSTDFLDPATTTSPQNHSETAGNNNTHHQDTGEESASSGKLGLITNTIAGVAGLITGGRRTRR
Sequence of Zaire ebolavirus disulfide-linked glycoprotein heterodimer (GP1-GP2) (Q05320 502-676 limits assumed): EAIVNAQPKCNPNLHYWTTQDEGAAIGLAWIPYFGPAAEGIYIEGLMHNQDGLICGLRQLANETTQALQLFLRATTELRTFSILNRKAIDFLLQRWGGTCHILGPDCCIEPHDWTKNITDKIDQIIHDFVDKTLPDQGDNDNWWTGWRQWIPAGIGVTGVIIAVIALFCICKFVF

| SMILES | binds to EBOV glycoprotein | Kd |
| --- | --- | --- |
| C[C@H]1[C@H](OC(=O)CCC(=O)O)O[C@@H]2O[C@@]3(C)CC[C@H]4[C@H](C)CC[C@@H]1[C@@]24OO3 [Artesunate] | did not | – |
| NC(=O)c1nc(F)c[nH]c1=O [Favipiravir] | did not | – |
| CCN(CC)CCOc1ccc2c(c1)C(=O)c1cc(OCCN(CC)CC)ccc1-2 [Tilorone] | – | 0.73 µM |
| CCN(CC)CCCC(C)Nc1c2ccc(Cl)cc2nc2ccc(OC)cc12 (centres unmarked) [Quinacrine] | – | 7.55 µM |
| COc1ccc2nc3cc(Cl)ccc3c(Nc3cc(CN4CCCC4)c(O)c(CN4CCCC4)c3)c2n1 [Pyronaridine, 4-[(7-Chloro-2-methoxybenzo[b][1,5]naph-thyridin-10-yl)amino]-2,6-bis(1-pyrrolidinylmethyl)phenol phosphate (1:4)] | – | 7.34 µM |
